PubChem BioAssay (NCI)
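Assay format: 96-well plates, 48-hour exposure. GI50 is the concentration that inhibits growth by half. TGI: total growth inhibition.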

Columns and labels:
Test in all cases: growth of human tumour cells (NCI), 48 h
[1] = test system: SW-620 colon
[2] = test system: OVCAR-4 ovarian
[3] = test system: OVCAR-3 ovarian
[4] = test system: SF-539 CNS
[5] = test system: MDA-MB-435
[6] = test system: NCI-H522 lung
[7] = test system: SF-268 CNS
[8] = test system: MCF7 breast
[9] = test system: SK-OV-3 ovarian
[10] = test system: NCI-H226 lung
[11] = test system: ACHN renal
[12] = test system: LOX IMVI melanoma
[13] = test system: HOP-92 NSCLC
[14] = test system: SK-MEL-5 melanoma
[15] = test system: DU-145 prostate
[16] = test system: EKVX NSCLC
[17] = test system: HOP-62 NSCLC
[18] = test system: SNB-19 CNS
[19] = test system: SR leukemia
[20] = test system: HT29 colon
[21] = test system: 786-0 renal
[22] = test system: NCI/ADR-RES ovarian
[23] = test system: CCRF-CEM leukemia
[24] = test system: HL-60(TB) leukemia
[25] = test system: RXF 393 renal
[26] = test system: M14 melanoma
[27] = test system: PC-3 prostate
[28] = test system: RPMI-8226 leukemia
[29] = test system: UO-31 renal
[30] = test system: NCI-H23 lung
[31] = test system: HCC-2998 colon
[32] = test system: U251 CNS
[33] = test system: SNB-75 CNS
[34] = test system: SK-MEL-28 melanoma
[35] = test system: OVCAR-8 ovarian
[36] = test system: IGROV1 ovarian
[37] = test system: SN12C renal
[38] = test system: SF-295 CNS
[39] = test system: KM12 colon
[40] = test system: COLO 205 colon
[41] = test system: A498 renal
[42] = test system: UACC-62 melanoma
[43] = test system: MOLT-4 leukemia
[44] = test system: MDA-MB-231 breast
[45] = test system: HS 578T breast
[46] = test system: SK-MEL-2 melanoma
[47] = test system: TK-10 renal
[48] = test system: MDA-MB-468 breast
[49] = test system: HCT-116 colon
[50] = test system: MALME-3M melanoma
[51] = test system: BT-549 breast
[52] = test system: UACC-257 melanoma
[53] = test system: A549 NSCLC
[54] = test system: NCI-H460 lung
[55] = test system: T-47D breast
[56] = test system: CAKI-1 renal
[57] = test system: K-562 leukemia
[58] = test system: HCT-15 colon
[59] = test system: OVCAR-5 ovarian

C[C@H]1[C@H](C)CC[C@]2(COC(=O)CCC(=O)NCC#CCN3CCNCC3)CC[C@]3(C)C(=CC[C@@H]4[C@@]5(C)CCCNC(C)(C)[C@@H]5CC[C@]43C)[C@H]12
GI50 [1]: 15.5 µM | TGI [1]: 28.9 µM | GI50 [2]: 25.1 µM | TGI [2]: 72.9 µM | GI50 [3]: 14.1 µM | TGI [3]: 27.6 µM | GI50 [4]: 13.9 µM | TGI [4]: 26.8 µM | GI50 [5]: 14.1 µM | TGI [5]: 27.5 µM | GI50 [6]: 16.4 µM | TGI [6]: 33.7 µM | GI50 [7]: 17.9 µM | TGI [7]: 40.1 µM | GI50 [8]: 12.7 µM | TGI [8]: 25.3 µM | GI50 [9]: 19.4 µM | TGI [9]: 44.7 µM | GI50 [10]: 27.3 µM | TGI [10]: > 100 µM | GI50 [11]: 16.4 µM | TGI [11]: 30 µM | GI50 [12]: 20.5 µM | TGI [12]: 44.7 µM | GI50 [13]: 13.2 µM | TGI [13]: 41.7 µM | GI50 [14]: 14.2 µM | TGI [14]: 31.9 µM | GI50 [15]: 17.5 µM | TGI [15]: 31.2 µM | GI50 [16]: 15.9 µM | TGI [16]: 32.2 µM | GI50 [17]: 18.9 µM | TGI [17]: 36.8 µM | GI50 [18]: 15.7 µM | TGI [18]: 29.1 µM | GI50 [19]: 15.4 µM | TGI [19]: 61.5 µM | GI50 [20]: 12.3 µM | TGI [20]: 26.1 µM | GI50 [21]: 15 µM | TGI [21]: 34.6 µM | GI50 [22]: 17.4 µM | TGI [22]: 34.6 µM | GI50 [23]: 16.8 µM | TGI [23]: 48.2 µM | GI50 [24]: 4.98 µM | TGI [24]: 27.1 µM | GI50 [25]: 18.2 µM | TGI [25]: 45.6 µM | GI50 [26]: 15.7 µM | TGI [26]: 30.9 µM | GI50 [27]: 11 µM | TGI [27]: 27.3 µM | GI50 [28]: 17 µM | TGI [28]: 94.5 µM | GI50 [29]: 12 µM | TGI [29]: 24.3 µM | GI50 [30]: 16.2 µM | TGI [30]: 30.7 µM | GI50 [31]: 15.1 µM | TGI [31]: 29.2 µM | GI50 [32]: 16.9 µM | TGI [32]: 32 µM | GI50 [33]: 13.3 µM | TGI [33]: 37.8 µM | GI50 [34]: 16.4 µM | TGI [34]: 30 µM | GI50 [35]: 19 µM | TGI [35]: 37.9 µM | GI50 [36]: 14.3 µM | TGI [36]: 27.3 µM | GI50 [37]: 14.7 µM | TGI [37]: 28.8 µM | GI50 [38]: 22.5 µM | TGI [38]: 57.2 µM | GI50 [39]: 17.5 µM | TGI [39]: 34 µM | GI50 [40]: 18.3 µM | TGI [40]: 36 µM | GI50 [41]: 15.1 µM | TGI [41]: 28.3 µM | GI50 [42]: 14 µM | TGI [42]: 27.2 µM | GI50 [43]: 9.96 µM | TGI [43]: 32.9 µM | GI50 [44]: 18.2 µM | TGI [44]: 32.1 µM | GI50 [45]: 20.9 µM | TGI [45]: 55.7 µM | GI50 [46]: 17.7 µM | TGI [46]: 33.4 µM | GI50 [47]: 18.9 µM | TGI [47]: 37.4 µM | GI50 [48]: 10.7 µM | TGI [48]: 25.9 µM | GI50 [49]: 11.5 µM | TGI [49]: 23.6 µM | GI50 [50]: 15.8 µM | TGI [50]: 29.2 µM | GI50 [51]: 16.2 µM | TGI [51]: 32.7 µM | GI50 [52]: 16.5 µM | TGI [52]: 33.5 µM | GI50 [53]: 14.9 µM | TGI [53]: 28.1 µM | GI50 [54]: 16.5 µM | TGI [54]: 30.1 µM | GI50 [55]: 19 µM | TGI [55]: 44.4 µM | GI50 [56]: 14.7 µM | TGI [56]: 28.4 µM | GI50 [57]: 6.02 µM | TGI [57]: 20.5 µM | GI50 [58]: 14.5 µM | TGI [58]: 27.6 µM | GI50 [59]: 17.2 µM | TGI [59]: 30.9 µM

O=C(Nc1ccc(OCc2ccc(Cl)cc2)cc1)Nc1ccc(Cl)c(C(F)(F)F)c1
GI50 [1]: 2.56 µM | TGI [1]: 10.3 µM | GI50 [2]: 2.37 µM | TGI [2]: 9.36 µM | GI50 [3]: 1.98 µM | TGI [3]: 8.35 µM | GI50 [4]: 2.4 µM | TGI [4]: 5.98 µM | GI50 [5]: 2.59 µM | TGI [5]: 8.51 µM | GI50 [6]: 1.82 µM | TGI [6]: 5.28 µM | GI50 [7]: 3.18 µM | TGI [7]: 13.2 µM | GI50 [8]: 1.95 µM | TGI [8]: 5.96 µM | GI50 [9]: 3.42 µM | TGI [9]: 11.6 µM | GI50 [10]: 2 µM | TGI [10]: 5.27 µM | GI50 [11]: 2.37 µM | TGI [11]: 7.62 µM | GI50 [12]: 1.85 µM | TGI [12]: 3.57 µM | GI50 [13]: 1.96 µM | TGI [13]: 5.37 µM | GI50 [14]: 1.75 µM | TGI [14]: 3.35 µM | GI50 [15]: 2.83 µM | TGI [15]: 10.7 µM | GI50 [16]: 2.18 µM | TGI [16]: 5.95 µM | GI50 [17]: 2.64 µM | TGI [17]: 8.18 µM | GI50 [18]: 2.45 µM | TGI [18]: 7.99 µM | GI50 [19]: 2.95 µM | TGI [19]: 15.7 µM | GI50 [20]: 2.78 µM | TGI [20]: 10.2 µM | GI50 [21]: 4.09 µM | TGI [21]: 13.3 µM | GI50 [22]: 1.74 µM | TGI [22]: 5.41 µM | GI50 [23]: 3.05 µM | TGI [23]: 79.6 µM | GI50 [24]: 2.33 µM | TGI [24]: 7.07 µM | GI50 [25]: 2.89 µM | TGI [25]: 6.17 µM | GI50 [26]: 2.8 µM | TGI [26]: 12.1 µM | GI50 [27]: 1.19 µM | TGI [27]: 13.8 µM | GI50 [28]: 1.55 µM | TGI [28]: 13.5 µM | GI50 [29]: 1.82 µM | TGI [29]: 6.73 µM | GI50 [30]: 1.39 µM | TGI [30]: 3.83 µM | GI50 [31]: 2.89 µM | TGI [31]: 11.7 µM | GI50 [32]: 1.92 µM | TGI [32]: 4.55 µM | GI50 [33]: 1.42 µM | TGI [33]: 5.45 µM | GI50 [34]: 2.84 µM | TGI [34]: 10.4 µM | GI50 [35]: 2.32 µM | TGI [35]: 7.19 µM | GI50 [36]: 3.25 µM | TGI [36]: 13.5 µM | GI50 [37]: 2.03 µM | TGI [37]: 6.46 µM | GI50 [38]: 1.42 µM | TGI [38]: 3.7 µM | GI50 [39]: 2.62 µM | TGI [39]: 9.32 µM | GI50 [40]: 1.97 µM | TGI [40]: 4.23 µM | GI50 [41]: 1.96 µM | TGI [41]: 5.21 µM | GI50 [42]: 2.4 µM | TGI [42]: 10.6 µM | GI50 [43]: 3.02 µM | TGI [43]: 27.2 µM | GI50 [44]: 2.45 µM | TGI [44]: 6.88 µM | GI50 [45]: 2.27 µM | TGI [45]: 6.7 µM | GI50 [46]: 2 µM | TGI [46]: 4.6 µM | GI50 [47]: 2.74 µM | TGI [47]: 9.69 µM | GI50 [48]: 1.54 µM | TGI [48]: 4.41 µM | GI50 [49]: 1.87 µM | TGI [49]: 7.71 µM | GI50 [50]: 1.75 µM | TGI [50]: 4.51 µM | GI50 [51]: 2.37 µM | TGI [51]: 5.63 µM | GI50 [52]: 2.33 µM | TGI [52]: 5.96 µM | GI50 [53]: 2.19 µM | TGI [53]: 8.07 µM | GI50 [54]: 1.47 µM | TGI [54]: 3.99 µM | GI50 [55]: 2.06 µM | TGI [55]: 10.1 µM | GI50 [56]: 2.31 µM | TGI [56]: 6.83 µM | GI50 [57]: 1.72 µM | TGI [57]: 65.7 µM | GI50 [58]: 1.87 µM | TGI [58]: 10.6 µM | GI50 [59]: 3.01 µM | TGI [59]: 17.4 µM
